Among the test systems are DLD-1; DMS-273; KM-20L2; LXFL 529; RXF 631; SNB-78; XF498; HOP-18; M19-MEL.
Assay in all cases: growth of human tumour cells (NCI), 48 h

The values that follow come from ChEMBL document CHEMBL1201862, “PubChem BioAssay data set” (2004).

The structures appear in SMILES notation.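 Exposure lasted 48 hours, with cells grown in 96-well plates and compounds tested at five concentrations. GI50: concentration for 50% inhibition of growth.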 Calls of active or inactive are those of the source. No stated cut-off is given here; in the data, active = GI50 up to about 1.1 µM and inactive = higher.

`N#C/C(=C\c1c(O)cc(O)cc1O)C(N)=O`: the GI50 in the experiment with DLD-1, in the experiment on DMS-273, in the experiment on KM-20L2, with LXFL 529, in the experiment with RXF 631 and in the experiment with SNB-78 was > 100 µM (inactive) each time. In addition, the GI50 with XF498 was > 100 µM (inactive).

As for `O=C(CC1(O)C(=O)Nc2c(Cl)cc(Cl)cc21)c1cccc([N+](=O)[O-])c1` (stereo not given), the GI50 was 43.2 µM (inactive) in the experiment with DLD-1; 39.4 µM (inactive) with DMS-273; 32.3 µM (inactive) with HOP-18; 52.1 µM (inactive) with KM-20L2; 15.1 µM (inactive) in the experiment on LXFL 529; 5.14 µM (inactive) with M19-MEL. For the same compound, the GI50 in the experiment with RXF 631 is 24.8 µM (inactive); in the experiment on SNB-78 it was 41.5 µM (inactive); in the experiment with XF498 it was 20.7 µM (inactive).

With `Cc1c(C(=O)CC(=O)C(=O)Nc2ccc(Cl)c(Cl)c2)[n+]([O-])c2ccccc2[n+]1[O-]`, the GI50 in the experiment with DMS-273 was 26 µM (inactive); in the experiment on KM-20L2 it was 52.5 µM (inactive); in the experiment on LXFL 529 it was 16.3 µM (inactive); with M19-MEL it was 15.7 µM (inactive); in the experiment with RXF 631 it was 22.5 µM (inactive); with SNB-78, 48.9 µM (inactive).

Consider `COCNC(=NC#N)NCOC`, for which the GI50 with DLD-1 was > 62.8 µM (inactive); in the experiment with DMS-273 it was > 47.1 µM (inactive); with HOP-18, > 100 µM (inactive); with KM-20L2 it was > 76 µM (inactive); with LXFL 529, > 100 µM (inactive); in the experiment on M19-MEL it was > 59.8 µM (inactive). Further, the GI50 with RXF 631 and in the experiment on XF498 was > 100 µM (inactive) each time.

For the compound `O=C1CCCC2COc3ccc(O)c1c32` (stereo not given), the GI50 in the experiment with DLD-1, in the experiment with DMS-273, in the experiment on KM-20L2, in the experiment on M19-MEL, in the experiment with RXF 631 and with SNB-78 was > 100 µM (inactive) throughout.

Turning to `Cc1cc(Cl)ccc1NC(=O)/C(=N\NC(C)(C)C)C(C#N)c1nc(-c2ccc([N+](=O)[O-])cc2)cs1` (stereo not given), the GI50 with DLD-1, in the experiment on DMS-273, with HOP-18, with KM-20L2, in the experiment with LXFL 529 and in the experiment on M19-MEL was > 100 µM (inactive) in each case. Moreover, the GI50 with RXF 631, in the experiment with SNB-78 and with XF498 was > 100 µM (inactive) in each case.

On to `C/C(CC(=O)Nc1ccccc1C)=N/NS(=O)(=O)c1ccc(C)cc1`, for which the GI50 in the experiment with DLD-1, in the experiment on DMS-273, in the experiment on KM-20L2, in the experiment with LXFL 529, with M19-MEL and in the experiment with RXF 631 was > 100 µM (inactive) throughout. The GI50 with SNB-78 and in the experiment on XF498 was > 100 µM (inactive) throughout.

For `Cc1cc(O)c2c3c1C(=O)Oc1c(CO)c(O)c(C(=O)O)c(c1O3)C=NN=Cc1c3c(c(CO)c(O)c1C(=O)O)OC(=O)c1c(C)cc(O)c(c1O3)C=NN=C2`, the GI50 in the experiment with DLD-1, with HOP-18, in the experiment with KM-20L2, in the experiment with LXFL 529, in the experiment on M19-MEL and with SNB-78 was > 100 µM (inactive) in each case. Besides, the GI50 in the experiment on XF498 is > 100 µM (inactive).

As for `COC(=O)CC(NC(=O)OCc1ccccc1)C(C(=O)OCc1ccccc1)C1(C)OCCO1` (stereo not given), the GI50 in the experiment on DLD-1 is 36.1 µM (inactive); in the experiment on DMS-273 it was 39.5 µM (inactive); with KM-20L2 it was 45.5 µM (inactive); in the experiment on LXFL 529, 18.8 µM (inactive); with M19-MEL it was 30.2 µM (inactive); in the experiment with RXF 631, 34.9 µM (inactive). Also, in the experiment on XF498, the GI50 is 15.8 µM (inactive).

Consider `CO[C@H](c1ccccc1)[C@H](C)N(C)c1ccc2ccccc2c1C1=NC(C)(C)CO1`, for which the GI50 in the experiment on DLD-1 is 13 µM (inactive); in the experiment on DMS-273, 19.2 µM (inactive); with HOP-18, 17.1 µM (inactive); in the experiment on KM-20L2, 13.4 µM (inactive); in the experiment with LXFL 529, 14.9 µM (inactive); in the experiment with M19-MEL, 15.3 µM (inactive). For the same compound, the GI50 was 15 µM (inactive) in the experiment on RXF 631 and 17.1 µM (inactive) in the experiment on XF498.

As for `Cc1cc(Cl)cc2c1NC(=O)C2(O)CC(=O)c1ccc(Br)cc1` (stereo not given), the GI50 in the experiment on DLD-1 was 50.8 µM (inactive); with DMS-273 it was 47.8 µM (inactive); with KM-20L2, > 91.4 µM (inactive); with LXFL 529, 68.9 µM (inactive); with M19-MEL, 22.5 µM (inactive); in the experiment on RXF 631, > 71.3 µM (inactive). The GI50 with XF498 is 30.2 µM (inactive).

Take `Cc1no[n+]([O-])c1/C=N/NS(=O)(=O)c1ccccc1`: the GI50 with DLD-1, in the experiment with HOP-18, with KM-20L2, in the experiment on LXFL 529 and in the experiment with M19-MEL was > 100 µM (inactive) throughout.

`Cc1c(Cl)c2ccccc2n1S(=O)(=O)c1ccccc1`: the GI50 with DLD-1 was 71.6 µM (inactive); in the experiment on DMS-273 it was 38.7 µM (inactive); with KM-20L2 it was 26.5 µM (inactive); with LXFL 529, 42.1 µM (inactive); in the experiment with XF498 it was > 100 µM (inactive).

With `O/N=C1/C(=C/c2ccc(Cl)c(Cl)c2)CCCC1C(NO)c1ccc(Cl)c(Cl)c1` (stereo not given), the GI50 in the experiment on DLD-1 is 16.9 µM (inactive); in the experiment with DMS-273 it was 18.8 µM (inactive); in the experiment with HOP-18 it was 16.3 µM (inactive); with KM-20L2, 17.9 µM (inactive); in the experiment on LXFL 529, 15.7 µM (inactive); with M19-MEL, 18.2 µM (inactive). Further, the figures for the GI50 in the experiment on SNB-78 and in the experiment with XF498 were 18.7 µM (inactive) and 16.3 µM (inactive), respectively.

In the case of `CCOC(=O)CSc1nnc(CSc2nc(-c3ccccc3)c(-c3ccccc3)[nH]2)n1-c1ccccc1`, the GI50 with DLD-1 is > 100 µM (inactive); in the experiment on DMS-273, > 100 µM (inactive); in the experiment on KM-20L2, 27.7 µM (inactive); with LXFL 529, 21.1 µM (inactive); in the experiment on M19-MEL, 38.8 µM (inactive); with SNB-78, 27.9 µM (inactive). The GI50 in the experiment with XF498 is 24.3 µM (inactive).

In the case of `O=c1c(-c2cccc3ccccc23)c(-c2cccc3ccccc23)c1=O`, the GI50 was 3.28 µM (inactive) in the experiment with DLD-1; 1.71 µM (inactive) with DMS-273; 39.8 µM (inactive) with HOP-18; 0.379 µM (active) in the experiment with KM-20L2; 3.05 µM (inactive) in the experiment on LXFL 529; 3.07 µM (inactive) in the experiment with M19-MEL. In addition, the GI50 with SNB-78 was 1.95 µM (inactive); in the experiment with XF498, 2.27 µM (inactive).

Consider `C/C(=N/N)c1ccc2[nH]c3c(C)cc([N+](=O)[O-])c(C)c3c2c1`, for which the GI50 in the experiment with DLD-1 was 3.18 µM (inactive); with DMS-273, 4.52 µM (inactive); in the experiment with HOP-18 it was 10.7 µM (inactive); in the experiment on M19-MEL it was 11.3 µM (inactive); with XF498 it was 11.4 µM (inactive).

As to `COc1ccc([N+]2=NC(c3ccc([N+](=O)[O-])cc3)=NN(c3ccccc3)C2)cc1.[O-][Cl+3]([O-])([O-])[O-]`, the GI50 was 34.9 µM (inactive) in the experiment with DLD-1; > 100 µM (inactive) in the experiment with DMS-273; 58.9 µM (inactive) in the experiment on KM-20L2; 47.3 µM (inactive) with LXFL 529; > 100 µM (inactive) in the experiment with SNB-78; 53.6 µM (inactive) in the experiment on XF498.

`O=C1OC(=O)C([Se]c2ccccc2)=C1[Se]c1ccccc1`: the GI50 in the experiment on DLD-1, with HOP-18, with KM-20L2, in the experiment with LXFL 529, with RXF 631 and in the experiment on SNB-78 was > 100 µM (inactive) throughout.

For `CC1(O)C(C)(O)C2(C)O[Te]3(OC12C)OC1(C)C(C)(O)C(C)(O)C1(C)O3` (stereo not given), the GI50 with DLD-1 is 33 µM (inactive); in the experiment on DMS-273 it was 19.3 µM (inactive); with LXFL 529, 16 µM (inactive); with M19-MEL, 22.1 µM (inactive); in the experiment with RXF 631 it was 18.5 µM (inactive); in the experiment on SNB-78 it was > 100 µM (inactive). In addition, the GI50 with XF498 was > 100 µM (inactive).

On to `Cn1ccnc1CCc1c(Cl)cccc1Cl`, for which the GI50 is > 100 µM (inactive) in the experiment with DLD-1; > 100 µM (inactive) in the experiment on DMS-273; 51.4 µM (inactive) in the experiment on HOP-18; > 100 µM (inactive) in the experiment on KM-20L2; > 100 µM (inactive) in the experiment on LXFL 529; > 100 µM (inactive) with M19-MEL. Besides, in the experiment with SNB-78, the GI50 is > 100 µM (inactive).

As to `CC1=C(C(=O)Nc2cc(=O)n(C)c(=O)n2C)C(c2cccc([N+](=O)[O-])c2)C(C(=O)Nc2cc(=O)n(C)c(=O)n2C)=C(C)N1`, the GI50 in the experiment with DLD-1, in the experiment with KM-20L2, with LXFL 529, in the experiment on M19-MEL and in the experiment on SNB-78 was > 100 µM (inactive) in each case.

As to `O=C1N[C@H](Cc2c[nH]cn2)C(=O)N2CCC[C@@H]12`, the GI50 with DLD-1, in the experiment on DMS-273, with KM-20L2, in the experiment on LXFL 529, in the experiment with M19-MEL and in the experiment with SNB-78 was > 100 µM (inactive) throughout. In the experiment on XF498, the GI50 is > 100 µM (inactive).

For `CCOC(=O)c1cnc2cc3cccccc3n2c1=O`, the GI50 is > 100 µM (inactive) in the experiment with DLD-1; 31.8 µM (inactive) in the experiment on DMS-273; > 100 µM (inactive) in the experiment with KM-20L2; > 100 µM (inactive) with LXFL 529; > 100 µM (inactive) in the experiment with SNB-78.

`COc1ccccc1/C=C/C(=O)c1sc(-c2cccnc2)nc1C`: the GI50 in the experiment on DLD-1 was > 100 µM (inactive); in the experiment on DMS-273, > 100 µM (inactive); in the experiment with HOP-18, 76.6 µM (inactive); with KM-20L2, > 100 µM (inactive); in the experiment on M19-MEL, > 100 µM (inactive); in the experiment on SNB-78 it was > 100 µM (inactive).

Consider `C=C1C(O)C2(O)OCC34C(CC5C(C)=CC(=O)C(O)C5(C)C23)OC(=O)C(OC(=O)C/C=C(\C)CCCCC)C14` (stereo not given), for which the GI50 in the experiment on DLD-1 was 0.0146 µM (active); with HOP-18, 0.0343 µM (active); in the experiment on KM-20L2 it was 0.0149 µM (active); in the experiment on M19-MEL it was 0.0136 µM (active); in the experiment with SNB-78 it was 0.0145 µM (active); in the experiment with XF498 it was 0.0153 µM (active).
